One data set is described as follows: physchem. Conditions: water. Here is the method:
The pH was adjusted with a buffer solution to 6 and distilled water was added to bring the solution to 1% concentration. The resulting mixture was agitated on a horizontal shaker at room temperature for 24 hours.
The pH was then adjusted to 6.5 with a concentrated aqueous hydrochloric acid solution to convert the complexed salt to the complexed product of the process and agitation was continued for 2 hours.

The conditions of data set [1]: cited from earlier work.

Converted amounts (≈) assume the structure as drawn.

The compound `NS(=O)(=O)c1cc2c(cc1Cl)N=CNS2(=O)=O` [chlorothiazide, 6-chloro-7-sulfamyl-1,2,4-benzothiadiazine-1,1-dioxide] had a thermodynamic solubility at 24 h in the data set “physchem” (pH 6, water) of 0.5 mg/mL (≈ 1690 µM). In “physchem” (water solubility of uncomplexed chlorothiazide), this compound had a solubility of around 0.5 mg/mL (≈ 1690 µM). In addition, the “solubility in alkaline aqueous solutions” value in data set [1] (alkaline aqueous solutions / alkali hydroxides) was “soluble in alkaline aqueous solutions”. Besides, the water-solubility in data set [1] (pH 6) is given as 0.5 g. per liter.

The term thermodynamic solubility denotes solubility found after equilibrating the solid with the medium. For orientation: solubility means the dissolved amount per volume that the medium holds. Higher therefore signals a readily soluble substance.

These data come from US4713238A (GAF Corporation, priority 1986, dated 1987).
